Assay results published in patent US10195156B2, “Compounds and compositions for intracellular delivery of agents” (ModernaTX, Inc., priority 2015, dated 2019).

Assays:
[1] = system: modified luciferase expression; experiment: Expression of Luc in different organs (liver, lung, spleen, femur) 6 hours after intravenous administration; type: in vivo; conditions: i.v., 0.5 mpk
Method: The efficacy of the nanoparticle compositions presented in Tables 1, 1a, 17-1, 19-1, 20-1 and 21-1 was further evaluated by measuring the expression of modified luciferase in the liver, lung, spleen, and femur upon administration of a given composition. Formulations were administered intravenously to mice (n=3) at a dosage of 0.5 mpk and bioluminescence measured after 6 hours. The standard MC3 formulation and a PBS control were also tested.

[2] = system: IP-10; experiment: Cytokine production induced by sample formulations: IP-10; type: in vivo; conditions: mice, i.v., 0.5 mpk, 6 hours; for IP-10: in pg/mL (unit assumed)
Procedure, shortened: (§1)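 Mice received nanoparticle formulations intravenously at 0.5 mpk, with standard MC3 formulation and PBS as controls. Cytokine concentrations were measured 6 hours after dosing.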

[3] = system: IL-6; experiment: Cytokine production induced by sample formulations: IL-6; type: in vivo; conditions: mice, i.v., 0.5 mpk, 6 hours; for IL-6: in pg/mL (unit assumed)
Procedure, shortened: as §1

[4] = pKa of nanoparticle compositions; type: physicochemical
[5] = Particle size and polydispersity index of nanoparticle compositions (Zetasizer Nano ZS); type: physicochemical; conditions: for particle size, rank within the named table (in words): comparison amongst compositions
Procedure, shortened: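 Nanoparticle compositions are diluted in 1×PBS, then size and polydispersity index are read on a Zetasizer Nano ZS instrument.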

[6] = Encapsulation efficiency of RNA (QUANT-IT RIBOGREEN RNA assay); type: physicochemical; conditions: for encapsulation efficiency, rank within the named table (in words): comparison amongst compositions
Procedure, shortened: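 Nanoparticle samples diluted to ~5 μg/mL RNA in TE buffer (pH 7.5), incubated with or without 2% Triton X-100 solution at 37 °C for 15 min, then RiboGreen added. Fluorescence read at ~480/520 nm, blank-subtracted; free RNA % = intact over Triton-disrupted signal.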

[7] = system: luciferase (Luc) mRNA expression; experiment: Expression of Luc induced by sample formulations, whole-body bioluminescence after intravenous administration; type: in vivo; conditions: mice, i.v., 0.5 mg/kg
Procedure, shortened: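 Mice (n=6) dosed intravenously with Luc mRNA nanoparticle formulations at 0.5 mg/kg. Whole-body bioluminescence measured at 3, 6 and 24 h. Standard MC3 formulation and PBS control run alongside.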

[8] = Table 1, * lipid:DSPC:Chol:PEG-DMG 50:10:38.5:1.5
[9] = Table 1, rows without footnote mark
[10] = Table 1, rows without footnote mark (lipid:DOPE:cholesterol:PEG-DMG 40:20:38.5:1.5, Luc mRNA; MC3 standard formulation)
[11] = Table 20-1, rows without footnote mark

particle size, rank within the named table (in words) [5]	encapsulation efficiency, rank within the named table (in words) [6]	IP-10 ([2]; Table 4)	IL-6 ([3]; Table 4)	pKa [4, 9]	PDI [5, 9]	Size (nm) [5, 10] [nm]	EE (%) [6, 9] [%]	IP-10 ([2]; Table 20-4, formula (20-I))	IL-6 ([3]; Table 20-4, formula (20-I))	pKa [4, 11]	Compound	Total Flux Liver ([1]; Table 3, mice)	Total Flux Lung ([1]; Table 3, mice)	Total Flux Spleen ([1]; Table 3, mice)	Total Flux 3 hours ([7]; Table 2, 3 hours)	Total Flux 6 hours ([7]; Table 2)	Total Flux 24 hours ([7]; Table 2)	Total Flux Liver ([1]; Table 20-3, mice)	Total Flux Lung ([1]; Table 20-3, mice)	Total Flux Spleen ([1]; Table 20-3, mice)	also measured
								810.6	118.6	5.90	CCCCCCCCCCCCN(CCCCO)CCN(CCCCCCCCCCCC)CCCCCCCCCCCC [Compound 20-22, 4-((2-(Didodecylamino)ethyl)(dodecyl)amino)butan-1-ol]							2.88E+08	5.04E+05	1.65E+06	PDI [5, 11]: 0.146; Size (nm) [5, 11]: 73.8 nm; EE (%) [6, 11]: 95.3%; Total Flux 3 hours ([7]; Table 20-2, 3 hours): 4.00E+09; Total Flux 6 hours ([7]; Table 20-2): 3.01E+09; Total Flux 24 hours ([7]; Table 20-2): 2.20E+08
								2012.3	140.8	6.79	CCCCCCCOC(=O)CCCCCN(CCO)CCN(CCCCCC(=O)OCCCCCCC)CCCCCC(=O)OCCCCCCC [Compound 20-5, Diheptyl 6,6′-((2-((6-(heptyloxy)-6-oxohexyl)(2hydroxyethyl)amino)ethyl)azanediyl)dihexanoate]							2.67E+06	5.80E+04	3.40E+06	Total Flux Femur ([1]; Table 20-3, mice): 9.53E+04; PDI [5, 11]: 0.210; Size (nm) [5, 11]: 119.3 nm; EE (%) [6, 11]: 78.1%; Total Flux 3 hours ([7]; Table 20-2, 3 hours): 6.07E+07; Total Flux 6 hours ([7]; Table 20-2): 1.99E+07; Total Flux 24 hours ([7]; Table 20-2): 2.07E+06
smallest particles								136.3	49.4	6.48	CCCCCCCCCCCCN(CCCCCCCCCCCC)CCN(CCO)CCCCCC [Compound 20-15, 2-((2-(Didodecylamino)ethyl)(hexyl)amino)ethan-1-ol]							6.74E+07	5.56E+05	1.86E+06	PDI [5, 11]: 0.118; Size (nm) [5, 11]: 67.4 nm; EE (%) [6, 11]: 97.4%; Total Flux 3 hours ([7]; Table 20-2, 3 hours): 3.36E+08; Total Flux 6 hours ([7]; Table 20-2): 2.25E+08; Total Flux 24 hours ([7]; Table 20-2): 2.08E+07

More lines, now with the values behind:

Compound	particle size, rank within the named table (in words) [5]	encapsulation efficiency, rank within the named table (in words) [6]	IP-10 ([2]; Table 4)	IL-6 ([3]; Table 4)	pKa [4, 9]	PDI [5, 9]	Size (nm) [5, 10] [nm]	EE (%) [6, 9] [%]	IP-10 ([2]; Table 20-4, formula (20-I))	IL-6 ([3]; Table 20-4, formula (20-I))	pKa [4, 11]	Total Flux Liver ([1]; Table 3, mice)	Total Flux Lung ([1]; Table 3, mice)	Total Flux Spleen ([1]; Table 3, mice)	Total Flux 3 hours ([7]; Table 2, 3 hours)	Total Flux 6 hours ([7]; Table 2)	Total Flux 24 hours ([7]; Table 2)	Total Flux Liver ([1]; Table 20-3, mice)	Total Flux Lung ([1]; Table 20-3, mice)	Total Flux Spleen ([1]; Table 20-3, mice)	also measured
CCCCC/C=C\C/C=C\CCCCCCCCN(CCO)CCCCCC [Compound 17-2, 2-(Hexyl((9Z,12Z)-octadeca-9,12-dien-1-yl)amino)ethan-1-ol]	largest particles	did not encapsulate RNA with high efficiency																			Total Flux Liver ([1]; Table 17-3, mice): 6.42E+04; Total Flux Lung ([1]; Table 17-3, mice): 1.96E+04; Total Flux Spleen ([1]; Table 17-3, mice): 4.16E+04; IP-10 ([2]; Table 17-4): 72.8; IP-10 induction, rank or comparison with IL-6 (in words) [2]: lowest IP-10 levels; IL-6 ([3]; Table 17-4): 9.88; IL-6 induction, rank within the named table (in words) [3]: lowest IL-6 levels; pKa ([4]; Table 17-1): 6.92; PDI ([5]; Table 17-1): 0.104; Size (nm) ([5]; Table 17-1): 136.9 nm; EE (%) ([6]; Table 17-1): 57.2%; Total Flux 3 hours ([7]; Table 17-2, 3 hours): 2.83E+05; Total Flux 6 hours ([7]; Table 17-2): 3.76E+05; Total Flux 24 hours ([7]; Table 17-2): 2.64E+05
CCCCC/C=C\C/C=C\CCCCCCCCN(CCCCCCCC/C=C\C/C=C\CCCCC)CCN1CCNCC1 [Compound 19-3, (9Z,12Z)—N-((9Z,12Z)—Octadeca-9,12-dien-1-yl)-N-(2-(piperazin-1-yl)ethyl)octadeca-9,12-dien-1-amine]	smallest particles	highest encapsulation efficiency																			Total Flux Liver ([1]; Table 19-3, mice): 2.65E+05; Total Flux Lung ([1]; Table 19-3, mice): 3.00E+04; Total Flux Spleen ([1]; Table 19-3, mice): 2.55E+05; IP-10 ([2]; Table 19-4): 177.5; IL-6 ([3]; Table 19-4): 5.4; IL-6 induction, rank within the named table (in words) [3]: lowest IL-6 expression; pKa ([4]; Table 19-1): 7.24; PDI ([5]; Table 19-1): 0.076; Size (nm) ([5]; Table 19-1): 47.9 nm; EE (%) ([6]; Table 19-1): 99.7%; Total Flux 3 hours ([7]; Table 19-2, 3 hours): 1.69E+06; Total Flux 6 hours ([7]; Table 19-2): 1.21E+06; Total Flux 24 hours ([7]; Table 19-2): 3.39E+05
CCCCC/C=C\C/C=C\CCCCCCCCN(CCCCCCCC/C=C\C/C=C\CCCCC)CCN(CCCCCCCC/C=C\C/C=C\CCCCC)CCN1CCNCC1 [Compound 41, N^1,N^1,N^2-Tri((9Z,12Z)-octadeca-9,12-dien-1-yl)-N^2-(2-(piperazin-1-yl)ethyl)ethane-1,2-diamine]		highest	350	116								3.00E+06	1.34E+05	2.13E+06	4.06E+07	2.04E+07	6.05E+07				pKa [4, 8]: 7.02; Size (nm) ([5]; Table 1, * formulated with lipid:DSPC:Chol:PEG-DMG 50:10:38.5:1.5): 69.0 nm; PDI [5, 8]: 0.239; EE (%) [6, 8]: 99.9%
CCCCC/C=C\CCCCCN(CCCCC/C=C\CCCCC)CCN1CCN(CCN(CCCCCCCCCCCC)CCN(CCCCCCCCCCCC)CCCCCCCCCCCC)CC1 [Compound 25, N^1-(2-(4-(2-(Di((Z)-dodec-6-en-1-yl)amino)ethyl)piperazin-1-yl)ethyl)-N^1,N^2,N^2-tridodecylethane-1,2-diamine]			1823	131	6.20	0.186	90.0	97.0				2.68E+09	5.88E+06	6.00E+06	1.06E+10	1.08E+10	2.72E+08				
CCCCCCCCCCCCCCN(CCCCCCCCCCCCCC)CCN(CCCCCCCCCCCCCC)CCN1CCN(CCN(CCCCCCCCC)CCCCCCCCC)CC1 [Compound 30, N^1-(2-(4-(2-(Dinonylamino)ethyl)piperazin-1-yl)ethyl)-N^1,N^2,N^2-tritetradecylethane-1,2-diamine]			4235	300	6.09	0.110	95.0	74.3				2.42E+09	1.61E+07	7.18E+06	2.87E+10	1.59E+10	1.95E+09				Total Flux Femur ([1]; Table 3, mice): 2.22E+06; total flux after 3 hours, rank within the named table (in words) ([7]; 3 hours): highest flux after 3 hours
CCCCCCCCCCCCN(CCCCCCCCCCCC)CCN(CCCCCCCCCCCC)CCN1CCN(CCN(CCCCCC)CCCCCC)CC1 [Compound 21, N^1-(2-(4-(2-(Dihexylamino)ethyl)piperazin-1-yl)ethyl)-N^1,N^2,N^2-tridodecylethane-1,2-diamine]			652	48	6.29	0.239	98.3	98.6				1.24E+09	2.51E+06	1.17E+07	1.13E+10	1.08E+10	1.18E+08				
CCCCCCCCCCCCN(CCCCCCCCCCCC)CCN1CCN(C)CC1 [Compound 19-4, N-Dodecyl-N-(2-(4-methylpiperazin-1-yl)ethyl)dodecan-1-amine]																					Total Flux Liver ([1]; Table 19-3, mice): 1.46E+05; Total Flux Lung ([1]; Table 19-3, mice): 4.49E+04; Total Flux Spleen ([1]; Table 19-3, mice): 3.69E+04; IP-10 ([2]; Table 19-4): 430.9; IP-10 induction, rank or comparison with IL-6 (in words) [2]: highest IP-10 expression; IL-6 ([3]; Table 19-4): 129.2; pKa ([4]; Table 19-1): 7.09; PDI ([5]; Table 19-1): 0.071; Size (nm) ([5]; Table 19-1): 111.4 nm; EE (%) ([6]; Table 19-1): 95.2%; Total Flux 3 hours ([7]; Table 19-2, 3 hours): 6.61E+05; Total Flux 6 hours ([7]; Table 19-2): 4.75E+05; Total Flux 24 hours ([7]; Table 19-2): 3.44E+05
